# Source: ChEMBL document CHEMBL5104097, “Discovery of Cysteine-targeting Covalent Protein Kinase Inhibitors” (J Med Chem, 2022)
# Tests used:
# [1] = test system: BaF3; assay: Antiproliferative activity against mouse BaF3 cells harboring wild-type FGFR4 assessed as reduction in cell proliferation measured after 72 hrs by MTS assay; assay type: functional, cell-based; details: BaF3, 72 h
# [2] = test system: BaF3; assay: Antiproliferative activity against mouse BaF3 cells harboring FGFR2 V564M mutant assessed as reduction in cell proliferation measured after 72 hrs by MTS assay; assay type: functional, cell-based; details: BaF3, 72 h
# [3] = test system: BaF3; assay: Antiproliferative activity against mouse BaF3 cells harboring wild-type FGFR3 assessed as reduction in cell proliferation measured after 72 hrs by MTS assay; assay type: functional, cell-based; details: BaF3, 72 h
# [4] = test system: BaF3; assay: Antiproliferative activity against mouse BaF3 cells harboring wild-type FGFR1 assessed as reduction in cell proliferation measured after 72 hrs by MTS assay; assay type: functional, cell-based; details: BaF3, 72 h
# [5] = test system: BaF3; assay: Antiproliferative activity against mouse BaF3 cells harboring wild-type FGFR2 assessed as reduction in cell proliferation measured after 72 hrs by MTS assay; assay type: functional, cell-based; details: BaF3, 72 h
# [6] = Inhibition of SRC T338M mutant (unknown origin); design: species or system Homo sapiens
Compound,EC50 [1] [nM],EC50 [2] [nM],EC50 [3] [nM],EC50 [4] [nM],EC50 [5] [nM],IC50 [6] [nM]
C=CC(=O)Nc1ccc(CN2C(=O)N(c3cc(OC)cc(OC)c3)Cc3cnc(Nc4ccc(N5CCN(C)CC5)cc4)nc32)cc1,1,58,1,1,1,–
C=CC(=O)Nc1ccc(CN(C(=O)Nc2c(Cl)c(OC)cc(OC)c2Cl)c2cc(Nc3ccc(N4CCN(C)CC4)cc3)ncn2)cc1,1,64,1,1,1,–
C=CS(=O)(=O)NCCC(=O)Nc1cccc(Nc2nccc(Nc3ncc(C(=O)Nc4c(C)cccc4Cl)s3)n2)c1,–,–,–,–,–,44
